We go through 3 molecules from patent publication US5955464A, “4-anilinoquinazoline derivatives bearing a heteroaryl substituted at the 6-position and possessing anti-cell-proliferation properties” (Zeneca Limited, priority 1994, dated 1999).

A value given as a limit tells only on which side of the number the result lay.

Assay [1] deals with EGF receptor tyrosine kinase. Particulars: in words; Fry et al., Science, 1994, 265, 1093; cited from earlier work.
In assay [2] the test system is xenografts of the human vulval epidermoid carcinoma cell line A431. In words: in vivo assay in athymic nude mice of inhibition of growth of A431 xenografts (Test (d)). Conditions: 200 mg/kg/day, once daily, usually oral. Further details: species or system athymic nude mice (human A431 xenograft). On the procedure:
(d) An in-vivo assay in a group of athymic nude mice (strain ONU:Alpk) which determines the ability of a test compound (usually administered orally as a ball-milled suspension in 0.5% polysorbate) to inhibit the growth of xenografts of the human vulval epidermoid carcinoma cell line A431.
A431 cells were maintained in culture in DMEM supplemented with 5% FCS and 2 mM glutamine. Freshly cultured cells were harvested by trypsinization and injected subcutaneously (10 million cells/0.1 ml/mouse) into both flanks of a number of donor nude mice. When sufficient tumour material was available (after approximately 9 to 14 days), fragments of tumour tissue were transplanted into the flanks of recipient nude mice (test day 0). On the eighth day after transplantation (test day 7) groups of 8 to 10 mice with similar-sized tumours were selected and dosing of the test compound was commenced. Once-daily dosing of test compound was continued for a total of 13 days (test days 7 to 19 inclusive). In some studies the dosing of the test compound was continued beyond test day 19, for example to test day 26. In each case, on the following day the animals were killed and final tumour volume was calculated from measurements of the length and width of the tumours. Results were calculated as a percentage inhibition of tumour volume relative to untreated controls.

The target of assay [3] is T1, EGF receptor tyrosine kinase (Homo sapiens, UniProt P00533).
T1 construct: Receptor tyrosine kinase was obtained in partially purified form from A-431 cells; endogenous in cells; host or cells: A-431 cells (human vulval carcinoma), Triton X-100-solubilised membrane fraction
T1 sequence (P00533 25-1210): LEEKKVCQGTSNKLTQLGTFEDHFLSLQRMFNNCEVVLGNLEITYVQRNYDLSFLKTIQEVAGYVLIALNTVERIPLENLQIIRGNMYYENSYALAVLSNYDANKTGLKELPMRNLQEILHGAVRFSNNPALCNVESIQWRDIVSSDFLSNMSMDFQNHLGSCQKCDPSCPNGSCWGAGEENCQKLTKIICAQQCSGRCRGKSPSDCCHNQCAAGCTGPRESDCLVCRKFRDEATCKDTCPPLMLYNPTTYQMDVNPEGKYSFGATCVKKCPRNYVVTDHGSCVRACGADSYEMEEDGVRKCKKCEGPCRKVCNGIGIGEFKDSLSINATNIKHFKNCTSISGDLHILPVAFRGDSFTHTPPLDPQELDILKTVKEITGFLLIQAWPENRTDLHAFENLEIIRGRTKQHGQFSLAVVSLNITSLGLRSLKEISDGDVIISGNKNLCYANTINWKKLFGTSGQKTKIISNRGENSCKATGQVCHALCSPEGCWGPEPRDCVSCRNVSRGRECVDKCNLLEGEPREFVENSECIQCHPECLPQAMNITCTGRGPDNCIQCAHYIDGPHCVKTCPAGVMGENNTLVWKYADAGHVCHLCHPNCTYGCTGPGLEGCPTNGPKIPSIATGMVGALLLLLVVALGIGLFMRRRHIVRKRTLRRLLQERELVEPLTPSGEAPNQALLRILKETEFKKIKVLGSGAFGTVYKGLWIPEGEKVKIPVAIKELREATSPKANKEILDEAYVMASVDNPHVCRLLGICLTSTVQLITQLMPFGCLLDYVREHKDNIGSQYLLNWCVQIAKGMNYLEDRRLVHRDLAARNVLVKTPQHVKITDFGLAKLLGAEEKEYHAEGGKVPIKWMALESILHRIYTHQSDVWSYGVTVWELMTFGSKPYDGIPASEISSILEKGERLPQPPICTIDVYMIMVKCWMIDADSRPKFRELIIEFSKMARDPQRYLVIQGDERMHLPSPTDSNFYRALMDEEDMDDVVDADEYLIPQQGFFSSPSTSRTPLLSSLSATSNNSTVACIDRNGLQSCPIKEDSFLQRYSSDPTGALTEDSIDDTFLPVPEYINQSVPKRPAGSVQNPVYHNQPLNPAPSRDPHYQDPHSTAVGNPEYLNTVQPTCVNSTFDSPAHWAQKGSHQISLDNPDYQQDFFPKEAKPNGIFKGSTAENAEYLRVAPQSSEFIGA
T1 sequence (P01133 971-1023 partner limits assumed): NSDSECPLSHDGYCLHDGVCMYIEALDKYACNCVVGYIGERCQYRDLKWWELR
In words: in vitro assay of inhibition of the enzyme EGF receptor tyrosine kinase (Test (a)). Particulars: EGF receptor tyrosine kinase from A-431 cells. It counts as biochemical. Here is the method: (a) An in vitro assay which determines the ability of a test compound to inhibit the enzyme EGF receptor tyrosine kinase. Receptor tyrosine kinase was obtained in partially purified form from A-431 cells (derived from human vulval carcinoma) by the procedures described below which are related to those described by Carpenter et al., J. Biol. Chem., 1979, 254, 4884, Cohen et al, J. Biol. Chem., 1982, 257, 1523 and by Braun et al., J. Biol. Chem., 1984, 259, 2051.
A-431 cells were grown to confluence using Dulbecco's modified Eagle's medium (DMEM) containing 5% fetal calf serum (FCS). The obtained cells were homogenised in a hypotonic borate/EDTA buffer at pH 10.1. The homogenate was centrifuged at 400 g for 10 minutes at 0-4° C. The supernatant was centrifuged at 25,000 g for 30 minutes at 0-4° C. […]
The test compound/EGF mixture solution (5 μl) was added to the test enzyme solution (10 μl) and the mixture was incubated at 0-4° C. for 30 minutes. […] Radioactivity present in the filter paper was measured using a liquid scintillation counter (Sequence A). […]
Receptor tyrosine kinase inhibition was calculated as follows: [formula]
The extent of inhibition was then determined at a range of concentrations of test compound to give an IC50 value.

The test system of another assay is liver hepatocyte growth. Briefly: in vivo assay in male rats of inhibition of TGFα-stimulated liver hepatocyte growth (Test (c)). Conditions: Rattus norvegicus, usually oral, inhibition of BrdU uptake, approximate ED50. On the procedure: (c) An in vivo assay in a group of male rats which determines the ability of a test compound (usually administered orally as a ball-milled suspension in 0.5% polysorbate) to inhibit the stimulation of liver hepatocyte growth caused by the administration of the growth factor TGFα (400 μg/kg subcutaneously, usually dosed twice, 3 and 7 hours respectively after the administration of the test compound).
In a control group of rats, the administration of TGFα causes on average a 5-fold stimulation of liver hepatocyte growth.
Cell-growth in the control and test animals is determined as follows:
On the morning of the day after the dosing of the test compound (or 0.5% polysorbate in the control group), the animals are dosed with bromodeoxyuridine (BrdU; 100 mg/kg intraperitoneally). The animals are killed four hours later and the livers are excised. […] Further tests were carried out using a range of doses of the test compounds to allow the calculation of an approximate ED50 value for the inhibition of liver hepatocyte proliferation as determined by inhibition of the uptake of BrdU.

Another assay relates to KB cells. Briefly: in vitro assay of inhibition of EGF-stimulated growth of the human naso-pharyngeal cancer cell line KB (Test (b)). It counts as cell-based. Particulars: 72 h, EGF 10 ng/ml, 3 days. Here is the method: (b) An in vitro assay which determines the ability of a test compound to inhibit the EGF-stimulated growth of the human naso-pharyngeal cancer cell line KB. KB cells were seeded into wells at a density of 1×10^4 -1.5×10^4 cells per well and grown for 24 hours in DMEM supplemented with 5% FCS (charcoal-stripped). Cell growth was determined after incubation for 3 days by the extent of metabolism of MTT tetrazolium dye to furnish a bluish colour. Cell growth was then determined in the presence of EGF (10 ng/ml) or in the presence of EGF (10 ng/ml) and a test compound at a range of concentrations. An IC50 value could then be calculated.

For assay [4], the system named is human mammary carcinoma which expresses EGF receptor tyrosine kinase. Conditions: athymic nude mice; Toi et al., 1990; cited from earlier work.
Assay [5] concerns another carcinoma which does not express EGF receptor tyrosine kinase. Particulars: athymic nude mice; Toi et al., 1990; cited from earlier work.

As for `COc1cc2ncnc(Nc3cccc(Br)c3)c2cc1OC` [4-(3-bromoanilino)-6,7-dimethoxyquinazoline], the “inhibition of EGF receptor tyrosine kinase” value in assay [1] was “highly potent inhibitor”.

For the molecule `Cc1cccc(Nc2ncnc3ccc(-n4ccnc4)cc23)c1` [4-(3-methylanilino)-6-(1-imidazolyl)quinazoline], in assay [2], the “inhibition in Test (d) (percentage inhibition of tumour volume)” value is 63%. The values for the IC50 (in assay [3]; in the assay on KB cells) were 26 nM and 510 nM, respectively. The same molecule yielded an ED50 in the assay on liver hepatocyte growth below 12.5 mg/kg.

Consider `O=CN/C=C/c1cc(O)ccc1O` [erbstatin], for which the “growth of transplanted human mammary carcinoma expressing EGF receptor tyrosine kinase” value in assay [4] is listed as “specifically attenuates the growth”. For the same molecule, in assay [5], the “growth of another carcinoma not expressing EGF receptor tyrosine kinase” value is reported as “without effect on the growth”.

As a reminder, the IC50 is the concentration needed to halve the response being measured. For orientation: ED50 means the dose that gives a 50% effect, or the effect in half of the subjects. Read a high ED50 as a need for a large dose.
